One test addresses human orexin 2 receptor (Homo sapiens (Human), UniProt O43614). The experiment in a line: Human orexin 2 receptor radioligand binding. The settings on record: human orexin 2 receptor; averages of 2-20 runs; read-out: hOX2 Ki. In a few lines: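 Ki derived from one-site competition IC50 using predetermined Kd of [3H]-EMPA, triplicate points, 2-20 runs averaged. Binding done on homogenized HEK293 cells stably expressing human orexin 2 receptor, DMSO ≤0.1%, with 10 μM almorexant defining nonspecific binding; filtered, washed, scintillation counted.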

For the next test, the target named is human orexin 1 receptor (Homo sapiens, UniProt O43613). The experiment in a line: Human orexin 1 receptor radioligand binding. The settings on record: human orexin 1 receptor; averages of 2-20 runs; read-out: hOX1 Ki. In a few lines:
(§1)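 Ki values derive from one-site competition IC50s corrected with the radioligand's predetermined Kd, triplicates per run, averaged over 2-20 runs. Cell homogenates (rat or human OX1R) compete against [^3H]-thiazolyl-oxadiazolyl-pyrrolidine methanone in PBS; 10 μM almorexant sets nonspecific binding; scintillation counting after washing.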

The target in another test is rat orexin 1 receptor (Rattus norvegicus, UniProt P56718). In words: Rat orexin 1 receptor radioligand binding. The note with it: rat orexin 1 receptor; averages of 2-20 runs; read-out: rOX1 Ki. In a few lines: as §1

Chain of human orexin 2 receptor (O43614 whole entry): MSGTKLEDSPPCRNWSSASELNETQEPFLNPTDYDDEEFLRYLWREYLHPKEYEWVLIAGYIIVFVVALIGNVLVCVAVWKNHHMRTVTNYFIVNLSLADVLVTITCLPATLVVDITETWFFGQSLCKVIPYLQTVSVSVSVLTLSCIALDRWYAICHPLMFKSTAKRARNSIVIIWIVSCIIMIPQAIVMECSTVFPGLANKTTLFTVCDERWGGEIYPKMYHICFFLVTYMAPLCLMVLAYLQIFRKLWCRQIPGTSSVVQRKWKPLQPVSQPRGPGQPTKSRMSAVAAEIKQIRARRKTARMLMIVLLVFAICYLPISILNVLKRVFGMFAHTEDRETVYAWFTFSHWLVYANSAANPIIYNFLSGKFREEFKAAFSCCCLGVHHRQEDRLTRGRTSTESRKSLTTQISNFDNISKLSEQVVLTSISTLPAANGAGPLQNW

As for `O=C(c1cccc(F)c1-c1ncccn1)N1C[C@H]2C[C@@H](Oc3ccc(C(F)(F)F)nn3)[C@@H]1C2` [Example 141, (3-fluoro-2-(pyrimidin-2-yl)phenyl)((1S,4R,6R)-6-((6-(trifluoromethyl)pyridazin-3-yl)oxy)-2-azabicyclo[2.2.1]heptan-2-yl)methanone], the Ki on human orexin 2 receptor was above 10000 nM; at human orexin 1 receptor, 348 nM; at rat orexin 1 receptor, 208 nM.
Turning to `Cc1ccc(C(=O)N2C[C@H]3C[C@@H](Nc4ccc(C(F)(F)F)cn4)[C@@H]2C3)c(-n2nccn2)n1` [Example 143, (6-methyl-2-(2H-1,2,3-triazol-2-yl)pyridin-3-yl)((1S,4S,6R)-6-((5-(trifluoromethyl)pyridin-2-yl)amino)-2-azabicyclo[2.2.1]heptan-2-yl)methanone], the inhibition constant Ki came out at 7300 nM on human orexin 2 receptor, 34 nM at human orexin 1 receptor and 24 nM at rat orexin 1 receptor.
With `O=C(c1cccc(F)c1-n1nccn1)N1C[C@H]2C[C@@H](Nc3ccc(C(F)(F)F)cn3)[C@@H]1C2` [Example 144, (3-fluoro-2-(2H-1,2,3-triazol-2-yl)phenyl)((1S,4S,6R)-6-((5-(trifluoromethyl)pyridin-2-yl)amino)-2-azabicyclo[2.2.1]heptan-2-yl)methanone], the inhibition constant (Ki) at human orexin 2 receptor was found to be 133 nM; at human orexin 1 receptor, 3 nM; on rat orexin 1 receptor, 3 nM.
On to `O=C(c1ccc(F)cc1-n1nccn1)N1C[C@H]2C[C@@H](Nc3ccc(C(F)(F)F)cn3)[C@@H]1C2` [Example 145, (4-fluoro-2-(2H-1,2,3-triazol-2-yl)phenyl)((1S,4S,6R)-6-((5-(trifluoromethyl)pyridin-2-yl)amino)-2-azabicyclo[2.2.1]heptan-2-yl)methanone], for which the inhibitory constant (Ki) at human orexin 2 receptor amounted to 934 nM; on human orexin 1 receptor, 7 nM; at rat orexin 1 receptor, 17 nM.
For `O=C(c1c(F)cccc1-n1nccn1)N1CC2CC(Nc3ccc(C(F)(F)F)cn3)C1C2` [Example 146, (2-fluoro-6-(2H-1,2,3-triazol-2-yl)phenyl)((1S,4S,6R)-6-((5-(trifluoromethyl)pyridin-2-yl)amino)-2-azabicyclo[2.2.1]heptan-2-yl)methanone], in that order: 150 nM, 3 nM and 6 nM.
Consider `O=C(c1c(F)cccc1-c1ncccn1)N1C[C@H]2C[C@@H](Nc3ccc(C(F)(F)F)cn3)[C@@H]1C2` [Example 147, (2-fluoro-6-(pyrimidin-2-yl)phenyl)((1S,4S,6R)-6-((5-(trifluoromethyl)pyridin-2-yl)amino)-2-azabicyclo[2.2.1]heptan-2-yl)methanone], for which the Ki came to 190 nM on human orexin 2 receptor, 6 nM on human orexin 1 receptor and 5 nM at rat orexin 1 receptor.
The like results for `O=C(c1ccccc1-c1ncccn1)N1C[C@H]2C[C@@H](Nc3ccc(C(F)(F)F)cn3)[C@@H]1C2` [Example 148, (2-(pyrimidin-2-yl)phenyl)((1S,4S,6R)-6-((5-(trifluoromethyl)pyridin-2-yl)amino)-2-azabicyclo[2.2.1]heptan-2-yl)methanone] were, in that order, 189 nM, 5 nM and 3 nM.
For the compound `Cc1cnc(C(=O)N2C[C@H]3C[C@@H](Nc4ccc(C(F)(F)F)cn4)[C@@H]2C3)c(-c2ncccn2)c1` [Example 149, (5-methyl-3-(pyrimidin-2-yl)pyridin-2-yl)((1S,4S,6R)-6-((5-(trifluoromethyl)pyridin-2-yl)amino)-2-azabicyclo[2.2.1]heptan-2-yl)methanone], the Ki on human orexin 2 receptor was found to be 4600 nM; on human orexin 1 receptor, 7 nM; on rat orexin 1 receptor it was 14 nM.
For `Cc1ccc(-c2ncccn2)c(C(=O)N2C[C@H]3C[C@@H](Nc4ccc(C(F)(F)F)cn4)[C@@H]2C3)n1` [Example 150, (6-methyl-3-(pyrimidin-2-yl)pyridin-2-yl)((1S,4S,6R)-6-((5-(trifluoromethyl)pyridin-2-yl)amino)-2-azabicyclo[2.2.1]heptan-2-yl)methanone], the inhibition constant (Ki) on human orexin 2 receptor was found to be 88 nM; on human orexin 1 receptor, 9 nM; on rat orexin 1 receptor, 13 nM.
Consider `Cc1cnc(-c2ncccn2)c(C(=O)N2C[C@H]3C[C@@H](Nc4ccc(C(F)(F)F)cn4)[C@@H]2C3)c1` [Example 151, (5-methyl-2-(pyrimidin-2-yl)pyridin-3-yl)((1S,4S,6R)-6-((5-(trifluoromethyl)pyridin-2-yl)amino)-2-azabicyclo[2.2.1]heptan-2-yl)methanone], for which the inhibition constant (Ki) at human orexin 2 receptor was found to be 5100 nM; on human orexin 1 receptor, 47 nM; on rat orexin 1 receptor, 21 nM.
For `Cc1noc(-c2cc(F)ccc2C(=O)N2C[C@H]3C[C@@H](Nc4ccc(C(F)(F)F)cn4)[C@@H]2C3)n1` [Example 152, (4-fluoro-2-(3-methyl-1,2,4-oxadiazol-5-yl)phenyl)((1S,4S,6R)-6-((5-(trifluoromethyl)pyridin-2-yl)amino)-2-azabicyclo[2.2.1]heptan-2-yl)methanone], in that order: 1600 nM, 16 nM and 30 nM.
For `CN(c1ccc(C(F)(F)F)cn1)[C@@H]1C[C@H]2C[C@@H]1N(C(=O)c1ccccc1-n1nccn1)C2` [Example 153, (2-(2H-1,2,3-triazol-2-yl)phenyl)((1S,4S,6R)-6-(methyl(5-(trifluoromethyl)pyridin-2-yl)amino)-2-azabicyclo[2.2.1]heptan-2-yl)methanone], in that order: 342 nM, 3 nM and 3 nM.
For `CN(c1ccc(C(F)(F)F)cn1)[C@@H]1C[C@H]2C[C@@H]1N(C(=O)c1cccc(F)c1-n1nccn1)C2` [Example 154, (3-fluoro-2-(2H-1,2,3-triazol-2-yl)phenyl)((1S,4S,6R)-6-(methyl(5-(trifluoromethyl)pyridin-2-yl)amino)-2-azabicyclo[2.2.1]heptan-2-yl)methanone], in that order: 329 nM, 6 nM and 4 nM.
For the compound `CN(c1ccc(C(F)(F)F)cn1)[C@@H]1C[C@H]2C[C@@H]1N(C(=O)c1cc(F)ccc1-n1nccn1)C2` [Example 155, (5-fluoro-2-(2H-1,2,3-triazol-2-yl)phenyl)((1S,4S,6R)-6-(methyl(5-(trifluoromethyl)pyridin-2-yl)amino)-2-azabicyclo[2.2.1]heptan-2-yl)methanone], the inhibition constant Ki came to 303 nM on human orexin 2 receptor, 3 nM on human orexin 1 receptor and 5 nM at rat orexin 1 receptor.
For `Cc1ccc(-n2nccn2)c(C(=O)N2C[C@H]3C[C@@H](N(C)c4ccc(C(F)(F)F)cn4)[C@@H]2C3)n1` [Example 156, ((1S,4S,6R)-6-(methyl(5-(trifluoromethyl)pyridin-2-yl)amino)-2-azabicyclo[2.2.1]heptan-2-yl)(6-methyl-3-(2H-1,2,3-triazol-2-yl)pyridin-2-yl)methanone], in that order: 274 nM, 5 nM and 7 nM.
Consider `CN(c1ccc(C(F)(F)F)cn1)[C@@H]1C[C@H]2C[C@@H]1N(C(=O)c1cc(F)ccc1-c1ncccn1)C2` [Example 158, (5-fluoro-2-(pyrimidin-2-yl)phenyl)((1S,4S,6R)-6-(methyl(5-(trifluoromethyl)pyridin-2-yl)amino)-2-azabicyclo[2.2.1]heptan-2-yl)methanone], for which the Ki on human orexin 2 receptor was found to be 340 nM; at human orexin 1 receptor, 2 nM; at rat orexin 1 receptor, 5 nM.
Consider `CN(c1ccc(C(F)(F)F)cn1)[C@@H]1C[C@H]2C[C@@H]1N(C(=O)c1c(F)cccc1-c1ncccn1)C2` [Example 159, (2-fluoro-6-(pyrimidin-2-yl)phenyl)((1S,4S,6R)-6-(methyl(5-(trifluoromethyl)pyridin-2-yl)amino)-2-azabicyclo[2.2.1]heptan-2-yl)methanone], for which the figures for the Ki at human orexin 2 receptor, on human orexin 1 receptor and at rat orexin 1 receptor were 209 nM, 4 nM and 6 nM, respectively.
Regarding `CCN(c1ccc(C(F)(F)F)cn1)C1CC2CC1N(C(=O)c1cccc(F)c1-c1ncccn1)C2` (stereo not drawn) [Example 160], the Ki at human orexin 2 receptor worked out at 208 nM; on human orexin 1 receptor it was 6 nM; at rat orexin 1 receptor, 9 nM.
In the case of `O=C(c1cccc(F)c1-c1ncccn1)N1C[C@H]2C[C@@H](N(CC3CC3)c3ccc(C(F)(F)F)cn3)[C@@H]1C2` [Example 161, ((1S,4S,6R)-6-((cyclopropylmethyl)(5-(trifluoromethyl)pyridin-2-yl)amino)-2-azabicyclo[2.2.1]heptan-2-yl)(3-fluoro-2-(pyrimidin-2-yl)phenyl)methanone], the inhibitory constant (Ki) at human orexin 2 receptor was 384 nM; at human orexin 1 receptor it was 5 nM; on rat orexin 1 receptor, 14 nM.
On to `COCCN(c1ccc(C(F)(F)F)cn1)[C@@H]1C[C@H]2C[C@@H]1N(C(=O)c1cccc(F)c1-c1ncccn1)C2` [Example 163, (3-fluoro-2-(pyrimidin-2-yl)phenyl)((1S,4S,6R)-6-((2-methoxyethyl)(5-(trifluoromethyl)pyridin-2-yl)amino)-2-azabicyclo[2.2.1]heptan-2-yl)methanone], for which the Ki came to 962 nM on human orexin 2 receptor, 12 nM at human orexin 1 receptor and 19 nM on rat orexin 1 receptor.
With `O=C(c1ccccc1-n1nccn1)N1C[C@H]2C[C@@H](Nc3ccc(Br)cn3)[C@@H]1C2` [Example 166, (2-(2H-1,2,3-triazol-2-yl)phenyl)((1S,4S,6R)-6-((5-bromopyridin-2-yl)amino)-2-azabicyclo[2.2.1]heptan-2-yl)methanone], the figures for the inhibition constant Ki at human orexin 2 receptor, on human orexin 1 receptor and at rat orexin 1 receptor were 236 nM, 4 nM and 2 nM, respectively.

The values are drawn from US9611277B2 (Janssen Pharmaceutica NV, priority 2013, dated 2017).
